Laboratory results as given in the supplement of paper PMC10307832.

How the values were obtained:
Experiment in all cases: relative viability (nuclei count vs DMSO), 5 days (fraction); higher = more cells survive
Omipalisib + OSI-027 = compound: COc1ncc(-c2ccc3nccc(-c4ccnnc4)c3c2)cc1NS(=O)(=O)c1ccc(F)cc1F [Omipalisib] + COc1cccc2cc(-c3nc([C@H]4CC[C@H](C(=O)O)CC4)n4ncnc(N)c34)[nH]c12 [OSI-027] (partner 0.5 µM)
In short: (§1)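 Five library-drug doses in √10 steps were combined with a fixed anchor-drug dose, or a single drug was given alone, by pin tool to lung cancer cell lines in 1536-well plates the day after seeding. Nuclei were stained and counted after 5 days. Relative viability is the nuclei count in treated wells over that in vehicle wells, taken as the median of duplicate plates.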

Omipalisib + Pemetrexed = compound: COc1ncc(-c2ccc3nccc(-c4ccnnc4)c3c2)cc1NS(=O)(=O)c1ccc(F)cc1F [Omipalisib] + Nc1nc2[nH]cc(CCc3ccc(C(=O)N[C@@H](CCC(=O)O)C(=O)O)cc3)c2c(=O)[nH]1 [Pemetrexed] (partner 0.2 µM)
In short: as §1

Omipalisib + Navitoclax = compound: COc1ncc(-c2ccc3nccc(-c4ccnnc4)c3c2)cc1NS(=O)(=O)c1ccc(F)cc1F [Omipalisib] + CC1(C)CCC(c2ccc(Cl)cc2)=C(CN2CCN(c3ccc(C(=O)NS(=O)(=O)c4ccc(N[C@H](CCN5CCOCC5)CSc5ccccc5)c(S(=O)(=O)C(F)(F)F)c4)cc3)CC2)C1 [Navitoclax] (partner 0.5 µM)
In short: as §1

Omipalisib + Alpelisib = compound: COc1ncc(-c2ccc3nccc(-c4ccnnc4)c3c2)cc1NS(=O)(=O)c1ccc(F)cc1F [Omipalisib] + Cc1nc(NC(=O)N2CCC[C@H]2C(N)=O)sc1-c1ccnc(C(C)(C)C(F)(F)F)c1 [Alpelisib] (partner 2 µM)
In short: as §1

Omipalisib + Luminespib = compound: COc1ncc(-c2ccc3nccc(-c4ccnnc4)c3c2)cc1NS(=O)(=O)c1ccc(F)cc1F [Omipalisib] + CCNC(=O)c1noc(-c2cc(C(C)C)c(O)cc2O)c1-c1ccc(CN2CCOCC2)cc1 [Luminespib] (partner 0.01 µM)
In short: as §1

Omipalisib + Olaparib = compound: COc1ncc(-c2ccc3nccc(-c4ccnnc4)c3c2)cc1NS(=O)(=O)c1ccc(F)cc1F [Omipalisib] + O=C(c1cc(Cc2n[nH]c(=O)c3ccccc23)ccc1F)N1CCN(C(=O)C2CC2)CC1 [Olaparib] (partner 8 µM)
In short: as §1

Cell Line | relative viability (Omipalisib + OSI-027; first compound 0.0003 µM) | relative viability (Omipalisib + OSI-027; first compound 0.003 µM) | relative viability (Omipalisib + OSI-027; first compound 0.03 µM) | relative viability (Omipalisib + Pemetrexed; first compound 0.0003 µM) | relative viability (Omipalisib + Pemetrexed; first compound 0.003 µM) | relative viability (Omipalisib + Pemetrexed; first compound 0.03 µM) | relative viability (Omipalisib + Navitoclax; first compound 0.0003 µM) | relative viability (Omipalisib + Navitoclax; first compound 0.003 µM) | relative viability (Omipalisib + Navitoclax; first compound 0.03 µM) | relative viability (Omipalisib + Alpelisib; first compound 0.0003 µM) | relative viability (Omipalisib + Alpelisib; first compound 0.003 µM) | relative viability (Omipalisib + Alpelisib; first compound 0.03 µM) | relative viability (Omipalisib + Luminespib; first compound 0.0003 µM) | relative viability (Omipalisib + Luminespib; first compound 0.003 µM) | relative viability (Omipalisib + Luminespib; first compound 0.03 µM) | relative viability (Omipalisib + Olaparib; first compound 0.0003 µM) | relative viability (Omipalisib + Olaparib; first compound 0.003 µM) | relative viability (Omipalisib + Olaparib; first compound 0.03 µM)
NCI-H1651 | 0.55 | 0.632 | 0.482 | 0.55 | 0.506 | 0.433 | 0.834 | 0.752 | 0.484 | 0.915 | 0.847 | 0.69 | 0.64 | 0.648 | 0.565 | 0.177 | 0.177 | 0.172
LCLC-103H | 0.436 | 0.354 | 0.313 | 0.503 | 0.411 | 0.405 | – | – | – | 0.96 | 0.889 | 0.643 | 0.999 | 0.714 | 0.427 | 0.781 | 0.726 | 0.397
LXF-289 | 0.764 | 0.493 | 0.357 | 0.938 | 1.05 | 0.804 | 0.947 | 1 | 0.739 | 1.06 | 1.02 | 0.792 | 0.536 | 0.456 | 0.232 | 0.943 | 1.05 | 0.455
NCI-H2023 | 0.344 | 0.169 | 0.0988 | 0.208 | 0.197 | 0.139 | 0.959 | 0.633 | 0.313 | 0.513 | 0.523 | 0.344 | 0.619 | 0.44 | 0.155 | 0.428 | 0.414 | 0.185
NCI-H650 | 0.447 | 0.384 | 0.315 | 0.903 | 0.634 | 0.453 | – | – | – | 1.03 | 0.741 | 0.487 | 0.81 | 0.592 | 0.378 | 0.366 | 0.33 | 0.245
NCI-H1395 | 0.608 | 0.458 | 0.527 | 0.737 | 0.657 | 0.602 | 1.35 | 0.991 | 0.665 | 1 | 0.906 | 0.7 | 0.622 | 0.662 | 0.418 | 0.501 | 0.421 | 0.371
NCI-H322M | 0.562 | 0.481 | 0.412 | 0.584 | 0.585 | 0.452 | 1.21 | 0.823 | 0.515 | 1.07 | 0.77 | 0.452 | 0.518 | 0.517 | 0.298 | 0.802 | 0.815 | 0.515
NCI-H23 | 0.62 | 0.365 | 0.321 | 0.692 | 0.44 | 0.374 | 0.748 | 0.421 | 0.35 | 0.596 | 0.444 | 0.381 | 0.225 | 0.219 | 0.218 | 0.384 | 0.242 | 0.143
ABC-1 | 0.518 | 0.382 | 0.283 | – | – | – | – | – | – | 0.734 | 0.879 | 0.677 | 0.688 | 0.362 | 0.484 | 0.911 | 0.764 | 0.619
NCI-H3122 | 0.863 | 0.376 | 0.216 | 0.214 | 0.192 | 0.202 | 1.02 | 0.991 | 0.402 | 0.742 | 0.63 | 0.489 | 0.074 | 0.0541 | 0.089 | 0.696 | 0.585 | 0.356
EPLC-272H | 0.286 | 0.29 | 0.217 | 0.34 | 0.39 | 0.235 | 1.12 | 0.945 | 0.327 | 0.883 | 0.794 | 0.477 | 0.191 | 0.176 | 0.156 | 0.712 | 0.36 | 0.131
NCI-H1793 | 0.261 | 0.183 | 0.168 | 0.696 | 0.463 | 0.24 | 0.368 | 0.29 | 0.204 | 0.577 | 0.435 | 0.292 | 0.19 | 0.159 | 0.159 | 0.576 | 0.368 | 0.196
COR-L 105 | 0.767 | 0.549 | 0.328 | 0.995 | 1.11 | 0.942 | 0.701 | 0.714 | 0.434 | 0.944 | 0.837 | 0.601 | 0.703 | 0.796 | 0.591 | 0.596 | 0.708 | 0.569
LK-2 | 0.212 | 0.13 | 0.173 | 0.253 | 0.211 | 0.16 | 0.595 | 0.285 | 0.343 | 0.962 | 0.608 | 0.521 | 0.153 | 0.2 | 0.174 | 0.747 | 0.29 | 0.238
NCI-H1792 | 0.653 | 0.404 | 0.224 | 0.835 | 0.319 | 0.103 | 0.583 | 0.515 | 0.235 | 0.664 | 0.6 | 0.236 | 0.328 | 0.41 | 0.184 | 0.382 | 0.0789 | 0.0824
NCI-H2347 | 0.345 | 0.262 | 0.959 | 0.45 | 0.484 | 0.445 | 0.764 | 0.671 | 0.278 | 1.05 | 1.05 | 0.69 | 0.304 | 0.267 | 0.339 | 0.527 | 0.514 | 0.407
LOU-NH91 | 0.705 | 0.58 | 0.503 | 0.408 | 0.431 | 0.448 | 0.635 | 0.585 | 0.346 | 0.681 | 0.677 | 0.53 | 0.345 | 0.386 | 0.337 | 0.909 | 0.852 | 0.617
